IC50 and z-score data for 42 molecules are collected here from PubChem BioAssay AID1259348 (Broad Institute, 2017).

The structures appear in SMILES notation.

In the assay the target is Insulin-degrading enzyme (Homo sapiens) (UniProt P14735). Briefly: IDE catalytic activity blockers, fluorogenic substrate – biochemical, kinetic mode, counter-screen for IDE exo-site inhibitor project, dose response (AID 1259348).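 On z-score: purified IDE bound to fluorescein-labelled 6b probe FL-6b at the exo-site; test concentration not given here; probe displacement lowers polarization so hits show a drop in FP signal.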 Particulars: purified human IDE, fluorogenic decapeptide proteolysis; for z-score: measured here: primary FP probe displacement screen, stronger effect = lower value. On the technique in general: A counterscreen serves to expose hits that act by an unwanted route or on another target.
Chain of Insulin-degrading enzyme (Homo sapiens) (P14735 42-1019 limits assumed): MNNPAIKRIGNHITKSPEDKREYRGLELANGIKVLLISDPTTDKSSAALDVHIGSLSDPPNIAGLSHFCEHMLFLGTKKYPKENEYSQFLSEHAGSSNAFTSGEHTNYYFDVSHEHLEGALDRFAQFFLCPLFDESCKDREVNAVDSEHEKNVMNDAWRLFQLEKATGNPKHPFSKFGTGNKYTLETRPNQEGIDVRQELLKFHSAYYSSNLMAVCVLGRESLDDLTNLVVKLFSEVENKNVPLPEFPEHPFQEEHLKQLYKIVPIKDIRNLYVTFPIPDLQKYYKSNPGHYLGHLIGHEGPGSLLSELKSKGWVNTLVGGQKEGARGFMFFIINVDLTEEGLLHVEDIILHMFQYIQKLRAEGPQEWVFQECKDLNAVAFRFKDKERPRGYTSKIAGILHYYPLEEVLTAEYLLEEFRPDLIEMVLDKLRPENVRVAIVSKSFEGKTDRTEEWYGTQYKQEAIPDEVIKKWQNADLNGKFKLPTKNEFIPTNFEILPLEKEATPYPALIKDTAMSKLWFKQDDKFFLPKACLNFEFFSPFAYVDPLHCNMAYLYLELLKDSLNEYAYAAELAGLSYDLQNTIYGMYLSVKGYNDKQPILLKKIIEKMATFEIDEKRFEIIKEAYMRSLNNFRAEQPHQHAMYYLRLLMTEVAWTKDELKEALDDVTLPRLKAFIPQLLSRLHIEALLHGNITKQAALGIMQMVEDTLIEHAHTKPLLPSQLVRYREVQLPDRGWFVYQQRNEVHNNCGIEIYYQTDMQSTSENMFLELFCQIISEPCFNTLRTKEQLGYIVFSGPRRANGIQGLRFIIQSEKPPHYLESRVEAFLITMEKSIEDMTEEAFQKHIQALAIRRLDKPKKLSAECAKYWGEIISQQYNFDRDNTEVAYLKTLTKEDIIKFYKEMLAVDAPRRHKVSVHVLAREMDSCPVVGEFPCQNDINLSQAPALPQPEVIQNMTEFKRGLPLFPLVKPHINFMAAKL

Usually IC50 stands for the point on the concentration scale where inhibition reaches its midpoint. Take `Cc1ccccc1-c1ccc([C@H]2[C@H](CO)N3C(=O)CN(C(=O)Nc4cccc(F)c4)C[C@@H]23)cc1`: the IC50 was 4 µM and the z-score was -3.03.
The corresponding values for `COc1cccc(-c2ccc([C@@H]3[C@@H](CO)N4CCCCN(C(=O)Cc5ccncc5)C[C@@H]34)cc2)c1` are 14.7 µM and -2.33.
For the molecule `Cc1ccccc1-c1ccc([C@@H]2[C@H]3CN(C(=O)c4cccnc4)CC(=O)N3[C@H]2CO)cc1`, the IC50 was 2.6 µM and the z-score is -19.7.
Taken in the same sequence, the figures for `Cc1ccccc1-c1ccc([C@H]2[C@@H](CO)N3CCCCN(S(=O)(=O)Cc4ccccc4)C[C@@H]23)cc1` were 44 µM and -1.65.
The corresponding values for `Cc1cccc(-c2ccc([C@@H]3[C@@H](CO)N4C(=O)CN(C(=O)NC5CCCCC5)C[C@@H]34)cc2)c1` are 0.67 µM and -16.6.
The corresponding values for `CC(=O)N1CCCCN2[C@H](CO)[C@@H](c3ccc(-c4cccc(C)c4)cc3)[C@@H]2C1` are 16.5 µM and -3.48.
`Cc1ccccc1-c1ccc(C2[C@@H]3CN(Cc4cncnc4)C[C@H]2N3)cc1` (stereo partly drawn): the IC50 is 6.7 µM and the z-score was -2.59.
For the molecule `Cc1cccc(-c2ccc([C@H]3[C@@H](CO)N4CCCCN(Cc5cccnc5)C[C@H]34)cc2)c1`, the concentration for half-maximal inhibition (IC50) was 10.7 µM and the z-score is -6.79.
The corresponding values for `COc1ccccc1NC(=O)N1CCCCN2[C@H](CO)[C@@H](c3ccc(-c4cccc(C)c4)cc3)[C@@H]2C1` are 7.6 µM and -2.84.
As for `COc1cccc(-c2ccc([C@@H]3[C@@H](CO)N4CCCCN(CC5CCOCC5)C[C@@H]34)cc2)c1`, the IC50 was 30 µM.
Consider `Cc1ccccc1-c1ccc([C@H]2[C@H](CO)N3C(=O)CN(C(=O)NC4CCCC4)C[C@@H]23)cc1`, for which the IC50 was 0.37 µM and the z-score was -20.8.
For the molecule `Cc1ccccc1-c1ccc([C@H]2[C@H](CO)N3CCCCN(CC4CC4)C[C@@H]23)cc1`, the IC50 is 30 µM and the z-score is -2.04.
In the case of `COc1ccccc1-c1ccc([C@@H]2[C@@H](C#N)N(C(=O)CN(C)C)[C@H]2CO)cc1`, the IC50 was 5.2 µM and the z-score was -12.4.
Taken in the same sequence, the figures for `Cc1ccccc1-c1ccc([C@@H]2[C@@H](CO)N3CCCCN(C(=O)NC4CCCC4)C[C@H]23)cc1` were 3.6 µM and -14.5.
For `Cc1cccc(-c2ccc([C@@H]3[C@H]4CN(C(=O)c5cccnc5)CCCCN4[C@H]3CO)cc2)c1`, the IC50 was 6.6 µM and the z-score was -15.2.
The corresponding values for `Cc1ccccc1-c1ccc([C@@H]2[C@@H](CO)N3CCCCN(C(=O)c4cccnc4)C[C@@H]23)cc1` are 13 µM and -7.98.
The corresponding values for `COc1ccccc1-c1ccc([C@H]2[C@@H](CO)N(C(=O)NC(C)C)[C@H]2C#N)cc1` are 20 µM and -16.3.
The corresponding values for `Cc1ccccc1-c1ccc([C@H]2[C@@H](CO)N3CCCCN(C(=O)c4cccnc4)C[C@@H]23)cc1` are 12.5 µM and -4.79.
`CN1C(=O)c2cc(NC(=O)Nc3ccccc3Cl)ccc2OC[C@H]2O[C@H](CC(=O)NCCCN3CCOCC3)CC[C@@H]21`: the IC50 is 1.7 µM and the z-score is -14.2.
The corresponding values for `COc1ccccc1-c1ccc([C@H]2[C@@H](CO)N3CCCCN(C(=O)NC4CCCC4)C[C@H]23)cc1` are 2.6 µM and -19.1.
The corresponding values for `CC(C)NC(=O)N1CCCCN2[C@@H](CO)[C@H](c3ccc(C#Cc4ccccc4F)cc3)[C@@H]2C1` are 1.2 µM and -12.7.
`Cc1ccccc1-c1ccc([C@H]2[C@@H](CO)N3CCCCN(CC4CC4)C[C@@H]23)cc1`: the IC50 is 45 µM and the z-score is -3.48.
The corresponding values for `CCCNC(=O)N1CC(=O)N2[C@@H](CO)[C@@H](c3ccc(C#Cc4cccc(OC)c4)cc3)[C@@H]2C1` are 11 µM and -1.33.
For `COc1ccccc1-c1ccc([C@H]2[C@H](C#N)N[C@@H]2CO)cc1`, the IC50 is 6.3 µM and the z-score is -12.
Turning to `CCCNC(=O)N1CC(=O)N2[C@H](CO)[C@@H](c3ccc(-c4cccc(C)c4)cc3)[C@@H]2C1`, the IC50 was 0.77 µM and the z-score is -22.4.
The corresponding values for `Cc1cccc(-c2ccc([C@@H]3[C@@H](CO)N4CCCCN(S(=O)(=O)c5cn(C)cn5)C[C@@H]34)cc2)c1` are 0.9 µM and -17.5.
The corresponding values for `Cc1ccccc1-c1ccc([C@H]2[C@H]3CN(C(=O)NC4CCCC4)CC(=O)N3[C@H]2CO)cc1` are 6 µM and -12.4.
Taken in the same sequence, the figures for `COc1ccccc1-c1ccc([C@H]2[C@@H](CO)N[C@@H]2CNC(=O)C2CCCC2)cc1` were 5.1 µM and -10.9.
Regarding `Cc1cccc(-c2ccc([C@@H]3[C@H](CO)N4CCCCN(S(=O)(=O)c5ccccc5F)C[C@@H]34)cc2)c1`, the IC50 is 0.55 µM and the z-score was -22.1.
Regarding `O=C(c1ccccn1)N1CC(=O)N2[C@@H](CO)[C@@H](c3ccc(C#Cc4ccccc4)cc3)[C@@H]2C1`, the IC50 was 5.2 µM and the z-score was -19.9.
For `Cc1ccccc1-c1ccc([C@@H]2[C@H](CO)N3CCCCN(C(=O)Cc4ccccn4)C[C@@H]23)cc1`, the IC50 was 4.9 µM and the z-score is -15.5.
The corresponding values for `Cc1ccccc1-c1ccc([C@H]2[C@@H](CO)N3CCCCN(Cc4cccnc4)C[C@H]23)cc1` are 4.8 µM and -11.4.
The corresponding values for `Cc1ccccc1-c1ccc([C@H]2[C@@H](CO)N3CCCCN(C(=O)CN4CCOCC4)C[C@@H]23)cc1` are 25 µM and 0.13.
Taken in the same sequence, the figures for `COc1ccccc1-c1ccc([C@H]2[C@@H](CO)N3CCCCN(C(=O)c4ccncc4)C[C@H]23)cc1` were 4.9 µM and -17.2.
As to `O=C(CC1CC1)N1CC(=O)N2[C@H](C1)[C@H](c1ccc(C#Cc3ccccc3)cc1)[C@@H]2CO`, the IC50 is 7.1 µM and the z-score was -15.9.
Taken in the same sequence, the figures for `Cc1cccc(-c2ccc([C@@H]3[C@@H](CO)N4C(=O)CN(C(=O)Cc5ccccn5)C[C@@H]34)cc2)c1` were 3.3 µM and -11.8.
Taken in the same sequence, the figures for `Cc1ccccc1-c1ccc(C2[C@@H]3CN(C(=O)C4CCCCC4)C[C@H]2N3)cc1` (stereo partly drawn) were 1.5 µM and -13.9.
Taken in the same sequence, the figures for `Cc1cccc(-c2ccc([C@H]3[C@@H](CO)N4CCCCN(C(=O)c5cccnc5)C[C@H]34)cc2)c1` were 3.4 µM and -17.
`Cc1ccccc1-c1ccc(C2[C@@H]3CN(C(=O)Cc4ccncc4)C[C@H]2N3)cc1` (stereo partly drawn): the IC50 is 2.2 µM and the z-score was -9.03.
Taken in the same sequence, the figures for `Cc1ccccc1-c1ccc([C@H]2[C@H]3CN(C(=O)NC4CCCC4)CCCCN3[C@H]2CO)cc1` were 5.6 µM and -5.69.
The corresponding values for `CO[C@@H]1CN(C)C(=O)c2cc(NC(=O)c3ccc(Oc4ccccc4)cc3)ccc2OC[C@@H](C)NC[C@H]1C` are 2.5 µM and -13.5.
The corresponding values for `Cc1ccccc1-c1ccc([C@H]2[C@@H](CO)N3CCCCN(C(=O)NC4CCCC4)C[C@@H]23)cc1` are 0.4 µM and -19.3.
